Columns and labels:
Phosphorylase kinase = assay: Inhibition of phosphorylase kinase (PhK); format: protein-complex assay
[1] = target: T1, Protein kinase C beta type (Rattus norvegicus, UniProt P68403); assay: Inhibition of Protein kinase C beta 1
[2] = target: T1, Protein kinase C beta type; assay: Inhibition of Protein kinase C beta
[3] = target: cAMP-dependent protein kinase (PKA) (Homo sapiens, UniProt P22694+P17612+P22612); assay: Inhibition of cyclic AMP dependent protein kinase A (PKA); format: protein assay
[4] = target: Protein kinase C alpha type (Rattus norvegicus, UniProt P05696); assay: Inhibition of Protein kinase C alpha
[5] = target: T2, Protein kinase C epsilon type (Rattus norvegicus, UniProt P09216); assay: Inhibition of Protein kinase C epsilon
T2 sequence (P09216 whole entry): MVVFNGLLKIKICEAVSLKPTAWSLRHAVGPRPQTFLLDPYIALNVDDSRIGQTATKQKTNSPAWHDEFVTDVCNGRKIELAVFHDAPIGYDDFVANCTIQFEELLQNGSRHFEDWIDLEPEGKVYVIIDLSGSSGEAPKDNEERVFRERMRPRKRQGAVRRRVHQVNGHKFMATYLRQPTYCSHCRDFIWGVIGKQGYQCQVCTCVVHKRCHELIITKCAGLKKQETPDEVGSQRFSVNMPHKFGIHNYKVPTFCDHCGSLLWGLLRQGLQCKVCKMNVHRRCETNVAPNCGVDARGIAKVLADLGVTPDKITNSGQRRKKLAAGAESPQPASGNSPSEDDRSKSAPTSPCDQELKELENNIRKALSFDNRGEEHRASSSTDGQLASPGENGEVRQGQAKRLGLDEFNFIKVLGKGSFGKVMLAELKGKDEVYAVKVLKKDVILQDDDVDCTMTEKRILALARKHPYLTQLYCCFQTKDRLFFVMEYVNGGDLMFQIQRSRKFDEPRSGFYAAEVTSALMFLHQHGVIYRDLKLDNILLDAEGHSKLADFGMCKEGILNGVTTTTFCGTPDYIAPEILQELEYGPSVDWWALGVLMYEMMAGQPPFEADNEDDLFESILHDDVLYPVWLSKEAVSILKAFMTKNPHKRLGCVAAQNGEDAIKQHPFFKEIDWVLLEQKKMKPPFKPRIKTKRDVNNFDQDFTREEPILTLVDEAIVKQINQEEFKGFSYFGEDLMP

Protein kinase C (PKC) [6] = assay: Inhibition of protein kinase C from rat brain (PKC)
Protein kinase C (PKC) [7] = assay: Inhibition of protein kinase C (PKC); format: protein assay
[8] = target: Protein kinase C gamma type (Rattus norvegicus, UniProt P63319); assay: Inhibition of Protein kinase C gamma (PKC)

T1 sequence (P68403 whole entry): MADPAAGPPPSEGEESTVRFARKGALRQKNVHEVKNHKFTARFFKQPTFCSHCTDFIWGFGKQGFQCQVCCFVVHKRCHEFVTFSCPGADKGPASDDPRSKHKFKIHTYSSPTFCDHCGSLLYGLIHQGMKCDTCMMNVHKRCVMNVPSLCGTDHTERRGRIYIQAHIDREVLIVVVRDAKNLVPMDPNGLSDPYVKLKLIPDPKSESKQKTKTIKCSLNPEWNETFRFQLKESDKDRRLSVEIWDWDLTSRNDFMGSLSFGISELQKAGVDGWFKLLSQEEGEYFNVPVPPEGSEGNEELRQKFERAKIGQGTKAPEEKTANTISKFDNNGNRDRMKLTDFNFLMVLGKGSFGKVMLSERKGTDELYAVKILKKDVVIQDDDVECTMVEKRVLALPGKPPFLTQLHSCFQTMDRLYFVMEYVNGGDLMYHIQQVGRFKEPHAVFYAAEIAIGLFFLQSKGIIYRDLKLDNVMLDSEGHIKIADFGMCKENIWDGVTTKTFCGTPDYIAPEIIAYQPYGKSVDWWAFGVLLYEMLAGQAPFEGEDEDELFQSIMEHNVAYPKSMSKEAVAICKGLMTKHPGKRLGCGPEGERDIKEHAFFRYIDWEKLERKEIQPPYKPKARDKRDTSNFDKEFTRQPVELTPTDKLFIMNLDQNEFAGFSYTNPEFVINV

IC50 (Phosphorylase kinase) [µM]	IC50 [1] [µM]	IC50 [2] [µM]	IC50 [3] [µM]	IC50 [4] [µM]	IC50 [5] [µM]	IC50 (Protein kinase C (PKC) [6]) [µM]	IC50 (Protein kinase C (PKC) [7]) [µM]	IC50 [8] [µM]	Compound
1.69	0.0053	0.0068	2.8	0.00285	0.048	0.0068	0.005	0.0054	CN1C[C@@H]2Cn3c(c(C4=C(c5cn(C)c6ccccc56)C(=O)NC4=O)c4ccccc43)C[C@H]2C1.Cl (stereo in doubt; form 1)
3.8			5.5				0.008		CN1C[C@@H]2Cn3c(c(C4=C(c5cn(C)c6ccccc56)C(=O)NC4=O)c4ccccc43)C[C@H]2C1.Cl (stereo in doubt; form 2)
15.6	0.028	0.0305	223.375	0.0088	0.105	0.021		0.0365	CN(C)C[C@H]1CCn2c(c(C3=C(c4cn(C)c5ccccc45)C(=O)NC3=O)c3ccccc32)C1 [RO-320432]
